Data from PubChem BioAssay (NCI).
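Five concentrations, 48 hours, 96-well plates. The concentration for full growth arrest is given as TGI.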

Experiments:
Assay in all cases: growth of human tumour cells (NCI), 48 h
786-0 renal = tested on: 786-0 renal
A498 renal = tested on: A498 renal
A549 NSCLC = tested on: A549 NSCLC
ACHN renal = tested on: ACHN renal
CAKI-1 renal = tested on: CAKI-1 renal
CCRF-CEM leukemia = tested on: CCRF-CEM leukemia
COLO 205 colon = tested on: COLO 205 colon
DLD-1 colon = tested on: DLD-1 colon
DMS 114 small cell lung = tested on: DMS 114 small cell lung
DMS 273 small cell lung = tested on: DMS 273 small cell lung
EKVX NSCLC = tested on: EKVX NSCLC
HCC-2998 colon = tested on: HCC-2998 colon
HCT-116 colon = tested on: HCT-116 colon
HCT-15 colon = tested on: HCT-15 colon
HL-60(TB) leukemia = tested on: HL-60(TB) leukemia
HOP-18 NSCLC = tested on: HOP-18 NSCLC
HOP-62 NSCLC = tested on: HOP-62 NSCLC
HOP-92 NSCLC = tested on: HOP-92 NSCLC
HT29 colon = tested on: HT29 colon
IGROV1 ovarian = tested on: IGROV1 ovarian
K-562 leukemia = tested on: K-562 leukemia
KM12 colon = tested on: KM12 colon
KM20L2 colon = tested on: KM20L2 colon
LOX IMVI melanoma = tested on: LOX IMVI melanoma
LXFL 529 NSCLC = tested on: LXFL 529 NSCLC
M14 melanoma = tested on: M14 melanoma
M19-MEL melanoma = tested on: M19-MEL melanoma
MALME-3M melanoma = tested on: MALME-3M melanoma
MOLT-4 leukemia = tested on: MOLT-4 leukemia
NCI-H226 lung = tested on: NCI-H226 lung
NCI-H23 lung = tested on: NCI-H23 lung
NCI-H460 lung = tested on: NCI-H460 lung
NCI-H522 lung = tested on: NCI-H522 lung
OVCAR-3 ovarian = tested on: OVCAR-3 ovarian
OVCAR-4 ovarian = tested on: OVCAR-4 ovarian
OVCAR-5 ovarian = tested on: OVCAR-5 ovarian
OVCAR-8 ovarian = tested on: OVCAR-8 ovarian
RPMI-8226 leukemia = tested on: RPMI-8226 leukemia
RXF 393 renal = tested on: RXF 393 renal
RXF-631 renal = tested on: RXF-631 renal
SF-268 CNS = tested on: SF-268 CNS
SF-295 CNS = tested on: SF-295 CNS
SF-539 CNS = tested on: SF-539 CNS
SK-MEL-2 melanoma = tested on: SK-MEL-2 melanoma
SK-MEL-28 melanoma = tested on: SK-MEL-28 melanoma
SK-MEL-5 melanoma = tested on: SK-MEL-5 melanoma
SK-OV-3 ovarian = tested on: SK-OV-3 ovarian
SN12C renal = tested on: SN12C renal
SNB-19 CNS = tested on: SNB-19 CNS
SNB-75 CNS = tested on: SNB-75 CNS
SNB-78 CNS = tested on: SNB-78 CNS
SR leukemia = tested on: SR leukemia
SW-620 colon = tested on: SW-620 colon
TK-10 renal = tested on: TK-10 renal
U251 CNS = tested on: U251 CNS
UACC-257 melanoma = tested on: UACC-257 melanoma
UACC-62 melanoma = tested on: UACC-62 melanoma
UO-31 renal = tested on: UO-31 renal
XF 498 CNS = tested on: XF 498 CNS

CCCCCCCCCC1CC(=O)Oc2cccc(O)c21 (stereo unspecified)
TGI (786-0 renal): 30.6 µM
TGI (A498 renal): 42 µM
TGI (A549 NSCLC): 83.4 µM
TGI (ACHN renal): > 84.8 µM
TGI (CAKI-1 renal): 76.3 µM
TGI (CCRF-CEM leukemia): 77.1 µM
TGI (COLO 205 colon): 31.3 µM
TGI (DLD-1 colon): > 71 µM
TGI (DMS 114 small cell lung): 45.7 µM
TGI (DMS 273 small cell lung): 19.3 µM
TGI (EKVX NSCLC): > 84.6 µM
TGI (HCC-2998 colon): > 20.2 µM
TGI (HCT-116 colon): > 100 µM
TGI (HCT-15 colon): 57.1 µM
TGI (HL-60(TB) leukemia): 62 µM
TGI (HOP-18 NSCLC): 97.3 µM
TGI (HOP-62 NSCLC): 80.9 µM
TGI (HOP-92 NSCLC): > 70.3 µM
TGI (HT29 colon): 53.8 µM
TGI (IGROV1 ovarian): 55.2 µM
TGI (K-562 leukemia): 66.3 µM
TGI (KM12 colon): 39.1 µM
TGI (KM20L2 colon): > 100 µM
TGI (LOX IMVI melanoma): 35.6 µM
TGI (LXFL 529 NSCLC): 63.2 µM
TGI (M14 melanoma): 49.6 µM
TGI (M19-MEL melanoma): > 96.7 µM
TGI (MALME-3M melanoma): 38.1 µM
TGI (MOLT-4 leukemia): > 85.3 µM
TGI (NCI-H226 lung): 99.5 µM
TGI (NCI-H23 lung): 84.2 µM
TGI (NCI-H460 lung): 30.7 µM
TGI (NCI-H522 lung): 45.3 µM
TGI (OVCAR-3 ovarian): 24.9 µM
TGI (OVCAR-4 ovarian): > 78.3 µM
TGI (OVCAR-5 ovarian): > 85.4 µM
TGI (OVCAR-8 ovarian): > 81.2 µM
TGI (RPMI-8226 leukemia): 83.4 µM
TGI (RXF 393 renal): 46.6 µM
TGI (RXF-631 renal): 20.2 µM
TGI (SF-268 CNS): > 100 µM
TGI (SF-295 CNS): > 83.3 µM
TGI (SF-539 CNS): 71.7 µM
TGI (SK-MEL-2 melanoma): > 72.7 µM
TGI (SK-MEL-28 melanoma): > 70.9 µM
TGI (SK-MEL-5 melanoma): 35.2 µM
TGI (SK-OV-3 ovarian): > 92.2 µM
TGI (SN12C renal): 15.7 µM
TGI (SNB-19 CNS): > 88.2 µM
TGI (SNB-75 CNS): > 100 µM
TGI (SNB-78 CNS): > 100 µM
TGI (SR leukemia): 64.2 µM
TGI (SW-620 colon): > 69.4 µM
TGI (TK-10 renal): > 100 µM
TGI (U251 CNS): 25.4 µM
TGI (UACC-257 melanoma): > 100 µM
TGI (UACC-62 melanoma): 98.3 µM
TGI (UO-31 renal): 75.1 µM
TGI (XF 498 CNS): 49.7 µM

O=C1C=Cc2c(-c3ccccc3)oc3cccc1c23
TGI (786-0 renal): > 100 µM
TGI (A498 renal): > 100 µM
TGI (A549 NSCLC): > 100 µM
TGI (ACHN renal): > 76.6 µM
TGI (CAKI-1 renal): 48.5 µM
TGI (CCRF-CEM leukemia): 64.6 µM
TGI (COLO 205 colon): > 82.1 µM
TGI (DLD-1 colon): > 100 µM
TGI (DMS 114 small cell lung): 89 µM
TGI (DMS 273 small cell lung): > 100 µM
TGI (EKVX NSCLC): 15.5 µM
TGI (HCC-2998 colon): > 100 µM
TGI (HCT-116 colon): > 73.1 µM
TGI (HCT-15 colon): > 75.4 µM
TGI (HL-60(TB) leukemia): 27.9 µM
TGI (HOP-18 NSCLC): > 100 µM
TGI (HOP-62 NSCLC): > 100 µM
TGI (HOP-92 NSCLC): 73.2 µM
TGI (HT29 colon): > 100 µM
TGI (IGROV1 ovarian): > 100 µM
TGI (K-562 leukemia): 48.1 µM
TGI (KM12 colon): > 100 µM
TGI (KM20L2 colon): > 100 µM
TGI (LOX IMVI melanoma): > 52.7 µM
TGI (LXFL 529 NSCLC): > 100 µM
TGI (M14 melanoma): > 100 µM
TGI (M19-MEL melanoma): > 100 µM
TGI (MALME-3M melanoma): > 100 µM
TGI (MOLT-4 leukemia): 19.5 µM
TGI (NCI-H226 lung): > 70.9 µM
TGI (NCI-H23 lung): 62.9 µM
TGI (NCI-H460 lung): > 80.5 µM
TGI (NCI-H522 lung): > 81 µM
TGI (OVCAR-3 ovarian): > 100 µM
TGI (OVCAR-4 ovarian): > 100 µM
TGI (OVCAR-5 ovarian): > 96 µM
TGI (OVCAR-8 ovarian): > 100 µM
TGI (RPMI-8226 leukemia): 19 µM
TGI (RXF 393 renal): > 69 µM
TGI (RXF-631 renal): > 100 µM
TGI (SF-268 CNS): > 100 µM
TGI (SF-295 CNS): > 100 µM
TGI (SF-539 CNS): > 100 µM
TGI (SK-MEL-2 melanoma): > 100 µM
TGI (SK-MEL-28 melanoma): > 100 µM
TGI (SK-MEL-5 melanoma): > 100 µM
TGI (SK-OV-3 ovarian): > 80.2 µM
TGI (SN12C renal): > 100 µM
TGI (SNB-19 CNS): > 100 µM
TGI (SNB-75 CNS): 81.8 µM
TGI (SNB-78 CNS): > 100 µM
TGI (SR leukemia): > 54.4 µM
TGI (SW-620 colon): > 100 µM
TGI (TK-10 renal): > 92.2 µM
TGI (U251 CNS): > 100 µM
TGI (UACC-257 melanoma): > 100 µM
TGI (UACC-62 melanoma): 99.1 µM
TGI (UO-31 renal): > 82.6 µM
TGI (XF 498 CNS): 67.7 µM

CCOC(OC1=CCCC1)C(C)[Se]c1ccccc1 (stereo unspecified)
TGI (786-0 renal): 41.8 µM
TGI (A498 renal): > 100 µM
TGI (A549 NSCLC): > 100 µM
TGI (ACHN renal): > 100 µM
TGI (CAKI-1 renal): > 100 µM
TGI (CCRF-CEM leukemia): 46.6 µM
TGI (COLO 205 colon): 39.9 µM
TGI (DLD-1 colon): 48.4 µM
TGI (DMS 114 small cell lung): 20.4 µM
TGI (DMS 273 small cell lung): 31.3 µM
TGI (EKVX NSCLC): > 100 µM
TGI (HCC-2998 colon): > 100 µM
TGI (HCT-116 colon): 45.1 µM
TGI (HCT-15 colon): 32 µM
TGI (HL-60(TB) leukemia): 42.9 µM
TGI (HOP-18 NSCLC): > 100 µM
TGI (HOP-62 NSCLC): > 100 µM
TGI (HOP-92 NSCLC): 81.4 µM
TGI (HT29 colon): 44.4 µM
TGI (IGROV1 ovarian): > 100 µM
TGI (K-562 leukemia): > 100 µM
TGI (KM12 colon): > 100 µM
TGI (KM20L2 colon): 79.6 µM
TGI (LOX IMVI melanoma): 28.9 µM
TGI (LXFL 529 NSCLC): > 100 µM
TGI (M14 melanoma): > 100 µM
TGI (M19-MEL melanoma): 66.3 µM
TGI (MALME-3M melanoma): 88.4 µM
TGI (MOLT-4 leukemia): 64.6 µM
TGI (NCI-H226 lung): > 100 µM
TGI (NCI-H23 lung): 62.3 µM
TGI (NCI-H460 lung): 40.1 µM
TGI (NCI-H522 lung): 35.9 µM
TGI (OVCAR-3 ovarian): > 100 µM
TGI (OVCAR-4 ovarian): > 100 µM
TGI (OVCAR-5 ovarian): 60.6 µM
TGI (OVCAR-8 ovarian): > 100 µM
TGI (RPMI-8226 leukemia): 43.7 µM
TGI (RXF 393 renal): 72.8 µM
TGI (RXF-631 renal): 41.4 µM
TGI (SF-268 CNS): 59 µM
TGI (SF-295 CNS): > 100 µM
TGI (SF-539 CNS): 71.7 µM
TGI (SK-MEL-2 melanoma): > 100 µM
TGI (SK-MEL-28 melanoma): > 100 µM
TGI (SK-MEL-5 melanoma): 52.4 µM
TGI (SK-OV-3 ovarian): > 100 µM
TGI (SN12C renal): > 100 µM
TGI (SNB-19 CNS): > 100 µM
TGI (SNB-75 CNS): 90.4 µM
TGI (SNB-78 CNS): > 100 µM
TGI (SR leukemia): 41.2 µM
TGI (TK-10 renal): > 100 µM
TGI (U251 CNS): 83 µM
TGI (UACC-257 melanoma): > 100 µM
TGI (UACC-62 melanoma): > 100 µM
TGI (UO-31 renal): > 100 µM
TGI (XF 498 CNS): 45.1 µM
